Measurements published in publication PMC4321733 (Bioorganic & medicinal chemistry letters, 2014).

Target: PDE10A (Homo sapiens, UniProt Q9Y233)
Test: scintillation proximity assay
Conditions: ratio of IC50 values

Chain of PDE10A (Q9Y233 whole entry): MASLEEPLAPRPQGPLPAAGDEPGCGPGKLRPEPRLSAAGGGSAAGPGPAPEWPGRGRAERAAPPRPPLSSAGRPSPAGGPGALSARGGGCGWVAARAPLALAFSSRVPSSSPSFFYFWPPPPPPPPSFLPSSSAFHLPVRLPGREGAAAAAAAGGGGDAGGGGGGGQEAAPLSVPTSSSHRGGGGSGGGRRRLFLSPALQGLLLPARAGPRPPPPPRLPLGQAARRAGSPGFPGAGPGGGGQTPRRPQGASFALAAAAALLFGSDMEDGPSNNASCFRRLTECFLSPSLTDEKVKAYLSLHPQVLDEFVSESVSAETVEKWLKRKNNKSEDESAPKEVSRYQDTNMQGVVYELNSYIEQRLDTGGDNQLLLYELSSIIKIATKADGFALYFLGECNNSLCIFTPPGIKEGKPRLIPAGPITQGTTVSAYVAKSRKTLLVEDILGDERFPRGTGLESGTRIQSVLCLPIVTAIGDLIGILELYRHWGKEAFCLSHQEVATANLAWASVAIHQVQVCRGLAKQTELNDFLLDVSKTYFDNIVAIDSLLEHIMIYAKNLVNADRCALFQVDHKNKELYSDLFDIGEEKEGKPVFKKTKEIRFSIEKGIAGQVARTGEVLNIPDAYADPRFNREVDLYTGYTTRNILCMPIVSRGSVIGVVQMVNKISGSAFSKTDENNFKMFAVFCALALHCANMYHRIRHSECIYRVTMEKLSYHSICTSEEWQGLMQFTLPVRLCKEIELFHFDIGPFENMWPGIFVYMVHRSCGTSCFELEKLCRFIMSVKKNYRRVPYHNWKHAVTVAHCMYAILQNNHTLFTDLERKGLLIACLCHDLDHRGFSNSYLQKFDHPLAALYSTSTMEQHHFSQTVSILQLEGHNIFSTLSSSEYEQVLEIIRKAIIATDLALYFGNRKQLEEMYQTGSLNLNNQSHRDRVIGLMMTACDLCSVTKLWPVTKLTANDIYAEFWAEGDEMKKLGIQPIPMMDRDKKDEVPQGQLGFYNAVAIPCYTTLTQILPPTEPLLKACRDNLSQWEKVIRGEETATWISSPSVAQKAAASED

`COc1cc2nncc(-c3cnc(N4CCC(O)(c5cccnc5)CC4)c(C)c3)c2cc1OC` [Compound 26a] was tested, and the “in vitro selectivity for PDE10A over PDE3A/3B, PDE4A/4B” value (shortened to “in vitro selectivity for PDE10A”) was > 1,000 fold.
With `COc1cc2nncc(-c3cnc(N4CCC(O)(c5ccc(F)nc5)CC4)c(C)c3)c2cc1OC` [Compound 26b] the “in vitro selectivity for PDE10A” value was > 1,000 fold.
In the case of `Cn1c(C(=O)c2ccc(Oc3ncccc3-c3cccnc3)cc2)nc2ccccc21` [Compound 33c], the “in vitro selectivity for PDE10A” value is reported as > 1,000 fold.
